Data taken from ChEMBL document CHEMBL4130493, “An insight into the biological activities of heterocyclic-fatty acid hybrid molecules” (Eur J Med Chem, 2017).
pEC50, pIC50: −log10 of the molar value. Converted amounts (≈) assume the structure as drawn. Each block holds one molecule with its values, some of them ahead of it.

Assays:
Pseudomonas aeruginosa [1] = experiment: Antibacterial activity against Pseudomonas aeruginosa MTCC 2453 incubated for 24 hrs by serial two-fold dilution method; type: functional; conditions: MTCC 2453, 24 h
Escherichia coli [2] = experiment: Antibacterial activity against Escherichia coli MTCC 40 incubated for 24 hrs by serial two-fold dilution method; type: functional; conditions: MTCC 40, 24 h
Staphylococcus aureus [3] = experiment: Antibacterial activity against Staphylococcus aureus MSSA 22 incubated for 24 hrs by filter paper disc method; type: functional
Escherichia coli [4] = experiment: Antibacterial activity against Escherichia coli K-12 incubated for 24 hrs by filter paper disc method; type: functional
Bacillus subtilis [5] = experiment: Antibacterial activity against Bacillus subtilis MTCC 121 incubated for 24 hrs by filter paper disc method; type: functional
Pseudomonas aeruginosa [6] = experiment: Antibacterial activity against Pseudomonas aeruginosa incubated for 24 hrs by filter paper disc method; type: functional
A549 = experiment: Cytotoxicity in human A549 cells by SRB assay; type: functional; conditions: read-out: TC50 (the source's name)
Hep 3B2 = experiment: Cytotoxicity in human Hep3B cells incubated for 48 hrs by MTT assay; type: functional, cell-based
Salmonella typhimurium = experiment: Antibacterial activity against Salmonella typhimurium MTCC98 at 100 ug/mL incubated for 24 hrs by filter paper disc method; type: functional, Salmonella enterica subsp. enterica serovar Typhimurium; conditions: Salmonella enterica, MTCC98, 24 h; read-out: DIZ
Staphylococcus aureus [7] = experiment: Antibacterial activity against Staphylococcus aureus MSSA 22 at 100 ug/mL incubated for 24 hrs by filter paper disc method; type: functional; conditions: MSSA 22, 24 h, read-out: DIZ
Escherichia coli [8] = experiment: Antibacterial activity against Escherichia coli K-12 at 100 ug/mL incubated for 24 hrs by filter paper disc method; type: functional; conditions: K-12, 24 h, read-out: DIZ
Candida albicans [9] = experiment: Antifungal activity against Candida albicans IOA-109 at 100 ug/mL incubated for 18 to 48 hrs by agar disc diffusion method; type: functional; conditions: read-out: DIZ
Bacillus subtilis [10] = experiment: Antibacterial activity against Bacillus subtilis ATCC 6051 at 100 ug/mL incubated for 24 hrs by filter paper disc method; type: functional; conditions: ATCC 6051, 24 h, read-out: DIZ
Candida albicans [11] = experiment: Antifungal activity against Candida albicans IOA-109 at 50 ug/disc incubated for 5 to 6 days by disc diffusion method; type: functional; conditions: read-out: DIZ
Plasmodium falciparum = experiment: Antimalarial activity against Plasmodium falciparum infected in erythrocytes assessed as inhibition of increase in parasite density after 72 hrs; type: functional, organism-based
Candida albicans [12] = experiment: Antifungal activity against Candida albicans IOA-109 incubated for 18 to 48 hrs; type: functional
Klebsiella pneumoniae = experiment: Antibacterial activity against Klebsiella pneumoniae incubated for 24 hrs by filter paper disc method; type: functional

MIC (Pseudomonas aeruginosa [1]): 0.35 to 0.7 µg/mL (≈ 0.836 to 1.67 µM) | MIC (Escherichia coli [2]): 0.35 to 0.7 µg/mL (≈ 0.836 to 1.67 µM)
SMILES: CCCCCCCCCCCCCC(=O)NN1C(=O)CSC1c1ccc(C)cc1 (stereo unspecified)

MIC (Pseudomonas aeruginosa [1]): 0.35 to 0.7 µg/mL (≈ 0.733 to 1.47 µM) | MIC (Escherichia coli [2]): 0.35 to 0.7 µg/mL (≈ 0.733 to 1.47 µM)
SMILES: CCCCCCCCCCCCCCCC(=O)NN1C(=O)CSC1c1ccc([N+](=O)[O-])cc1 (stereo unspecified)

MIC (Pseudomonas aeruginosa [1]): 0.35 to 0.7 µg/mL (≈ 0.778 to 1.56 µM) | MIC (Escherichia coli [2]): 0.35 to 0.7 µg/mL (≈ 0.778 to 1.56 µM)
SMILES: CCCCCCCCCCCCCC(=O)NN1C(=O)CSC1c1ccc([N+](=O)[O-])cc1 (stereo unspecified)

SMILES: CCCCCCC(O)C/C=C\CCCCCCC(=O)N1N=C(C)CC1=O (stereo unspecified)
diameter of the inhibition zone (DIZ) (Staphylococcus aureus [3]): 10 - 18 mm | diameter of the inhibition zone (DIZ) (Escherichia coli [4]): 10 - 18 mm | diameter of the inhibition zone (DIZ) (Bacillus subtilis [5]): 10 - 18 mm | diameter of the inhibition zone (DIZ) (Pseudomonas aeruginosa [6]): 10 - 18 mm

MIC (Pseudomonas aeruginosa [1]): 0.35 to 0.7 µg/mL (≈ 0.684 to 1.37 µM) | MIC (Escherichia coli [2]): 0.35 to 0.7 µg/mL (≈ 0.684 to 1.37 µM)
SMILES: CCCCCCCCCCCCCCCC(=O)NN1C(=O)CSC1c1ccc(Br)cc1 (stereo unspecified)

SMILES: CC/C=C\C/C=C\C/C=C\CCCCCCCc1nnc(S)o1
CC50 (A549): 0.149 µM

SMILES: C=CCCCCCCCCc1n[nH]c(=S)n1N
pIC50 (Hep 3B2): 5.04

SMILES: CCCCCCCCCCCCCCCCCc1nc(-c2ccccc2)n[nH]1
zone of inhibition at 100 µg/mL (Salmonella typhimurium): 13.1 to 22.2 mm | zone of inhibition at 100 µg/mL (Staphylococcus aureus [7]): 13.1 to 22.2 mm | zone of inhibition at 100 µg/mL (Escherichia coli [8]): 13.1 to 22.2 mm | zone of inhibition at 100 µg/mL (Candida albicans [9]): 17.2 to 19 mm | zone of inhibition at 100 µg/mL (Bacillus subtilis [10]): 13.1 to 22.2 mm

SMILES: C=CCCCCCCCCc1n[nH]c(=S)o1
pIC50 (Hep 3B2): 5.05

SMILES: CCCCC/C=C\CCC(O)CCCCCCCc1nc(-c2cccc(O)c2)n[nH]1 (stereo unspecified)
zone of inhibition at 100 µg/mL (Salmonella typhimurium): 13.1 to 22.2 mm | zone of inhibition at 100 µg/mL (Staphylococcus aureus [7]): 13.1 to 22.2 mm | zone of inhibition at 100 µg/mL (Escherichia coli [8]): 13.1 to 22.2 mm | zone of inhibition at 100 µg/mL (Candida albicans [9]): 17.2 to 19 mm | zone of inhibition at 100 µg/mL (Bacillus subtilis [10]): 13.1 to 22.2 mm

SMILES: CCCCCCCC/C=C\C(O)CCCCCCC(=O)n1nnc2ccccc21 (stereo unspecified)
zone of inhibition at 50 µg/disc (Candida albicans [11]): 16 to 20 mm

MIC (Pseudomonas aeruginosa [1]): 0.35 to 0.7 µg/mL (≈ 0.832 to 1.66 µM) | MIC (Escherichia coli [2]): 0.35 to 0.7 µg/mL (≈ 0.832 to 1.66 µM)
SMILES: CCCCCCCCCCCCCC(=O)NN1C(=O)CSC1c1ccc(O)cc1 (stereo unspecified)

pEC50 (Plasmodium falciparum): 4.70 to 5.15
SMILES: C=C[C@H]1CN2CC[C@H]1C[C@H]2[C@H](OCCCCCCCC/C=C\C/C=C\C/C=C\CC)c1ccnc2ccc(OC)cc12

MIC (Pseudomonas aeruginosa [1]): 0.35 to 0.7 µg/mL (≈ 0.784 to 1.57 µM) | MIC (Escherichia coli [2]): 0.35 to 0.7 µg/mL (≈ 0.784 to 1.57 µM)
SMILES: CCCCCCCCCCCCCCCC(=O)NN1C(=O)CSC1c1ccc(C)cc1 (stereo unspecified)

SMILES: CCCCCCCC(O)CC/C=C\CCCCC(=O)n1[nH]c(=O)c2ccccc2c1=O (stereo unspecified)
diameter of the inhibition zone (DIZ) (Staphylococcus aureus [3]): 10 - 18 mm | diameter of the inhibition zone (DIZ) (Escherichia coli [4]): 15 - 18 mm | diameter of the inhibition zone (DIZ) (Bacillus subtilis [5]): 10 - 18 mm | diameter of the inhibition zone (DIZ) (Pseudomonas aeruginosa [6]): 10 - 18 mm

SMILES: CCCCCCC(O)C/C=C\CCCCCCC(=O)Nn1c(C)ccc1C (stereo unspecified)
diameter of the inhibition zone (DIZ) (Staphylococcus aureus [3]): 15 - 19 mm | diameter of the inhibition zone (DIZ) (Escherichia coli [4]): 15 - 19 mm | diameter of the inhibition zone (DIZ) (Bacillus subtilis [5]): 15 - 19 mm | diameter of the inhibition zone (DIZ) (Candida albicans [12]): 17 - 20 mm | diameter of the inhibition zone (DIZ) (Klebsiella pneumoniae): 15 - 19 mm

SMILES: CCCCC/C=C\CCC(O)CCCCCCCc1nc(-c2ccccc2)n[nH]1 (stereo unspecified)
zone of inhibition at 100 µg/mL (Salmonella typhimurium): 13.1 to 22.2 mm | zone of inhibition at 100 µg/mL (Staphylococcus aureus [7]): 13.1 to 22.2 mm | zone of inhibition at 100 µg/mL (Escherichia coli [8]): 13.1 to 22.2 mm | zone of inhibition at 100 µg/mL (Candida albicans [9]): 17.2 to 19 mm | zone of inhibition at 100 µg/mL (Bacillus subtilis [10]): 13.1 to 22.2 mm

SMILES: CCCCCCC(O)C/C=C\CCCCCCCc1nc(-c2ccc(O)c(O)c2)n[nH]1 (stereo unspecified)
zone of inhibition at 100 µg/mL (Salmonella typhimurium): 13.1 to 22.2 mm | zone of inhibition at 100 µg/mL (Staphylococcus aureus [7]): 13.1 to 22.2 mm | zone of inhibition at 100 µg/mL (Escherichia coli [8]): 13.1 to 22.2 mm | zone of inhibition at 100 µg/mL (Candida albicans [9]): 17.2 to 19 mm | zone of inhibition at 100 µg/mL (Bacillus subtilis [10]): 13.1 to 22.2 mm

MIC (Pseudomonas aeruginosa [1]): 0.35 to 0.7 µg/mL (≈ 0.797 to 1.59 µM) | MIC (Escherichia coli [2]): 0.35 to 0.7 µg/mL (≈ 0.797 to 1.59 µM)
SMILES: CCCCCCCCCCCCCC(=O)NN1C(=O)CSC1c1ccc(Cl)cc1 (stereo unspecified)

pEC50 (Plasmodium falciparum): 4.70 to 5.15
SMILES: C=C[C@H]1CN2CC[C@H]1C[C@H]2[C@H](O/C=C/C=C/C=C/C=C/C=C/C=C/CCCCCCCCCC)c1ccnc2ccc(OC)cc12

SMILES: CCCCCCCC/C=C\CCCCCCCc1nc(-c2ccccc2)n[nH]1
zone of inhibition at 100 µg/mL (Salmonella typhimurium): 13.1 to 22.2 mm | zone of inhibition at 100 µg/mL (Staphylococcus aureus [7]): 13.1 to 22.2 mm | zone of inhibition at 100 µg/mL (Escherichia coli [8]): 13.1 to 22.2 mm | zone of inhibition at 100 µg/mL (Candida albicans [9]): 17.2 to 19 mm | zone of inhibition at 100 µg/mL (Bacillus subtilis [10]): 13.1 to 22.2 mm

SMILES: CCCCCCCC/C=C\CCCCCCCc1nc(-c2cccc(O)c2)n[nH]1
zone of inhibition at 100 µg/mL (Salmonella typhimurium): 13.1 to 22.2 mm | zone of inhibition at 100 µg/mL (Staphylococcus aureus [7]): 13.1 to 22.2 mm | zone of inhibition at 100 µg/mL (Escherichia coli [8]): 13.1 to 22.2 mm | zone of inhibition at 100 µg/mL (Candida albicans [9]): 17.2 to 19 mm | zone of inhibition at 100 µg/mL (Bacillus subtilis [10]): 13.1 to 22.2 mm

pEC50 (Plasmodium falciparum): 4.70 to 5.15
SMILES: C=C[C@H]1CN2CC[C@H]1C[C@H]2[C@H](OCCCCCCCCCCCCCCCCCC)c1ccnc2ccc(OC)cc12

MIC (Pseudomonas aeruginosa [1]): 0.35 to 0.7 µg/mL (≈ 0.78 to 1.56 µM) | MIC (Escherichia coli [2]): 0.35 to 0.7 µg/mL (≈ 0.78 to 1.56 µM)
SMILES: CCCCCCCCCCCCCCCC(=O)NN1C(=O)CSC1c1ccc(O)cc1 (stereo unspecified)

SMILES: CCCCCCCC/C=C\CCCCCCCc1nc(-c2ccc(O)c(O)c2)n[nH]1
zone of inhibition at 100 µg/mL (Salmonella typhimurium): 13.1 to 22.2 mm | zone of inhibition at 100 µg/mL (Staphylococcus aureus [7]): 13.1 to 22.2 mm | zone of inhibition at 100 µg/mL (Escherichia coli [8]): 13.1 to 22.2 mm | zone of inhibition at 100 µg/mL (Candida albicans [9]): 17.2 to 19 mm | zone of inhibition at 100 µg/mL (Bacillus subtilis [10]): 13.1 to 22.2 mm

SMILES: CCCCCCC(O)C/C=C\CCCCCCc1nc2ccccc2c(=O)o1 (stereo unspecified)
diameter of the inhibition zone (DIZ) (Staphylococcus aureus [3]): 15 - 19 mm | diameter of the inhibition zone (DIZ) (Escherichia coli [4]): 15 - 19 mm | diameter of the inhibition zone (DIZ) (Bacillus subtilis [5]): 15 - 19 mm | diameter of the inhibition zone (DIZ) (Candida albicans [12]): 17 - 20 mm | diameter of the inhibition zone (DIZ) (Klebsiella pneumoniae): 15 - 19 mm
